Assay results taken from patent US6489365B1, “Amidine derivatives, the preparation and use thereof as medicaments with Itb4 antagonistic effect” (Boehringer Ingelheim KG, priority 1992, dated 2002).

Assays:
[1] = tested on: LTB4-induced neutrophilic influx in the mouse ear; experiment: Leukotrien-B4-induced accumulation of neutrophiles in the mouse ear; type: in vivo; settings: po, read-out: LTB4-induced neutroph. Accum. p.o. ED50
Procedure: c) Leukotrien-B4-indicated Accumulation of Neutrophiles in the Mouse Ear
Evaluation of the neutrophilic influx by photometric measurement (mOD/min) of the myeloperoxidase activity (Bradley et al.: J. Invest. Dermatol. 78, 206, 1982) in the skin of the ear. Increase 6 hours after topical treatment of the left ear with LTB4 (250 ng on each side) compared with the right ear (2×5 μl acetone as solvent).
Substance administered by oral route in 1% tylose 300, 30 minutes before the LTB4 stimularion.

[2] = tested on: neutrophilic granulocytes; experiment: LTB4-induced aggregation of neutrophilic granulocytes in the guinea-pig (in vitro); type: cell-based; settings: Cavia porcellus, 2 min, inhibition 2 minutes after incubation with test substance in polydiol/DMSO, read-out: LTB4-induced neutroph. Aggr. EC50
Procedure: b) Aggregation of Neutrophilic Granulocytes in the Guinea-pig
Indicated by LTB4 in vitro (increase in light transmission in the aggregometer, recorded in mm; each experiment repeated twice): inhibition 2 minutes after incubation with test substance in polydiol/DMSO.

[3] = target: T1, LTB4 receptors (Homo sapiens, UniProt Q15722); experiment: U937 receptor binding test/LTB4; settings: 3H-LTB4 (3 nM), vital U937 cells, incubation 2 hours at 0°C; read-out: Receptor binding U937-8 Ki
T1 construct: vital U937 cells (differentiated human monocytary cell line with naturally expressed LTB4 receptors); endogenous in cells; host or cells: U937 cells (differentiated, intact/vital)
T1 sequence (Q15722 whole entry): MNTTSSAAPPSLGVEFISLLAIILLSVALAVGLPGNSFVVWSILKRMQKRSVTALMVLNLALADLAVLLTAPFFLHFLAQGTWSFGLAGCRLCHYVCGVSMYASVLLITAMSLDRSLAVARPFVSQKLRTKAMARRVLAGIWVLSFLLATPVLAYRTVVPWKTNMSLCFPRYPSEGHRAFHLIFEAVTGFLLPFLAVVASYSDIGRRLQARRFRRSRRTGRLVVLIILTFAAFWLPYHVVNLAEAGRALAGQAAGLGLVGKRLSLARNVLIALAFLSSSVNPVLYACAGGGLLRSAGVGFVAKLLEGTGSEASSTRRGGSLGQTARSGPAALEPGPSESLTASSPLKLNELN
Procedure: a) U937—Receptor Binding Test/LTB4
The binding of ^3H-LTB4 (3 nM) to vital U937 cells (differentiated human monocytary cell line with naturally expressed LTB4 receptors) is inhibited, in dosage dependent manner, by an increasing concentration of the test substance (incubation 2 hours at 0°C.). After the unbound ^3H-LTB4 has been separated off by membrane filtration, the radioactivity of the bound LTB4 receptor/^3H-LTB4 complex is quantified by scintillation measurement. The affinity (inhibition constant Kj) was determined by repeated adaptation of a displacement curve to the measurements (program: “coupled mass equilibria” on Wang computer).

In the case of `CCCc1c(OC)cccc1OCCCCOc1ccc(C(=N)N)cc1`, the ED50 [1] is reported as 0.8 mg/kg, the EC50 [2] is reported as 1900 nM and the Ki [3] is reported as 12 nM.
